Laboratory results as given in ChEMBL document CHEMBL5512622, “Ecto-nucleotide pyrophosphatase/phosphodiesterase 1 inhibitors: Research progress and prospects” (Eur J Med Chem, 2024).
Each block holds one molecule with its values, some of them ahead of it.

Columns and labels:
[1] = molecular target: T1, Ectonucleotide pyrophosphatase/phosphodiesterase family member 1 (Homo sapiens, UniProt P22413); test: Inhibition of recombinant human ENPP1 using ATP as substrate assessed as inhibition constant incubated for 30 mins by Lineweaver-Burk plot analysis
T1 sequence (P22413 whole entry): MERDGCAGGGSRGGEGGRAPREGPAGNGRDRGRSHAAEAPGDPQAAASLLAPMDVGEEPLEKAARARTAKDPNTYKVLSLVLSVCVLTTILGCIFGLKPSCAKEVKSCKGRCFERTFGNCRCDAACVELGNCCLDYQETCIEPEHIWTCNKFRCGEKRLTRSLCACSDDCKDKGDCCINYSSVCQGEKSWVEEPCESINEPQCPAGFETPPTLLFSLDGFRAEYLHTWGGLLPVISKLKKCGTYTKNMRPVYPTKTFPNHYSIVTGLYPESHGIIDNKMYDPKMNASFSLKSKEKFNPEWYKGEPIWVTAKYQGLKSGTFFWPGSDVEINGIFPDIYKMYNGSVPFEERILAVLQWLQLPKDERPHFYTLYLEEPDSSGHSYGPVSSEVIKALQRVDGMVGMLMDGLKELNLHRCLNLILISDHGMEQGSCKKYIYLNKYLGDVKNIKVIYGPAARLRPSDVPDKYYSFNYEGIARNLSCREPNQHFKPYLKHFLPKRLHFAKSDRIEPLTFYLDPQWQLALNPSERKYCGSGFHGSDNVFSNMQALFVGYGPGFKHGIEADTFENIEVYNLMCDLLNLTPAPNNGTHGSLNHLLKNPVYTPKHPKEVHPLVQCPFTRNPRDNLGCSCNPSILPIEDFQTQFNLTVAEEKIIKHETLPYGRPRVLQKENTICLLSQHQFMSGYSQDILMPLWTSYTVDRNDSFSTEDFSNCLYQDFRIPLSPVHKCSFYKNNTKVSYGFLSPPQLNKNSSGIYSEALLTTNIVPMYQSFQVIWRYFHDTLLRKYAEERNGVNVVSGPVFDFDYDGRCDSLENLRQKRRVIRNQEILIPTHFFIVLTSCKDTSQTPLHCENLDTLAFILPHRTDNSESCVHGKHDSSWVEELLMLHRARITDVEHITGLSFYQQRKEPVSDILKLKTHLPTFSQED

[2] = molecular target: T1, Ectonucleotide pyrophosphatase/phosphodiesterase family member 1; test: Inhibition of recombinant human ENPP1 using 2',3'-cGAMP as substrate preincubated for 5 to 10 mins followed by substrate addition and measured after 90 mins by […] assay
[3] = molecular target: T1, Ectonucleotide pyrophosphatase/phosphodiesterase family member 1; test: Inhibition of recombinant human ENPP1 using p-NP-TMP as substrate incubated for 45 mins by absorbance based analysis
[4] = molecular target: T2, Ectonucleotide pyrophosphatase/phosphodiesterase family member 1 (Mus musculus, UniProt P06802); test: Inhibition of ENPP1 in mouse plasma using [32P]cGAMP as substrate; assay type: cell-free
T2 sequence (P06802 whole entry): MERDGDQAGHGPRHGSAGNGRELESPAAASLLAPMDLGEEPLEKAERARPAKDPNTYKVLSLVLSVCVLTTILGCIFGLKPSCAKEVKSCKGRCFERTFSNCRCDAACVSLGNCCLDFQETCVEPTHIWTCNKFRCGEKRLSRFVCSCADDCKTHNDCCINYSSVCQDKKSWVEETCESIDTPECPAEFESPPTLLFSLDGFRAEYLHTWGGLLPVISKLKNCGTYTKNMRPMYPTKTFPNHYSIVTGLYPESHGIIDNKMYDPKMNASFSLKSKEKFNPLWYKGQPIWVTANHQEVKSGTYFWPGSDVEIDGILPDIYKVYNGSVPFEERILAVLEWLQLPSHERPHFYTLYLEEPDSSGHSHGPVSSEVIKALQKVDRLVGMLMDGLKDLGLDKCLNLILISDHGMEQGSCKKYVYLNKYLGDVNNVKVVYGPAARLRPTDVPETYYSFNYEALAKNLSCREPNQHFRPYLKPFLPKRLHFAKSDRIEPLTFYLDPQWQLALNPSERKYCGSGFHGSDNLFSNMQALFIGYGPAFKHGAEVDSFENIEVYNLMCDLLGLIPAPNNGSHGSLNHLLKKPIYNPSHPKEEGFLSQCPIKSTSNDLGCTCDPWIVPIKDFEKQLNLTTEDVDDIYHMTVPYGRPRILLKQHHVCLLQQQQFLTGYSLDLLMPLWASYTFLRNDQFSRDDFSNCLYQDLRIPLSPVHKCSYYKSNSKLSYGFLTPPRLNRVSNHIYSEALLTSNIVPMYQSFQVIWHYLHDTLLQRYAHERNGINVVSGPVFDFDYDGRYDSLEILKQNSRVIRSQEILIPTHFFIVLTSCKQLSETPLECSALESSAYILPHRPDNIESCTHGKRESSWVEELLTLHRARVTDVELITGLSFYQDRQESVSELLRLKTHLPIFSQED

[5] = AUClast in CD-1 mouse at 50 mg/kg, po measured after 24 hrs by LC-MS/MS analysis; assay type: ADME, organism-based; conditions: in vivo
[6] = molecular target: T1, Ectonucleotide pyrophosphatase/phosphodiesterase family member 1; test: Inhibition of ENPP1 (unknown origin) using cGAMP as substrate assessed as inhibition constant at pH 7.4
[7] = Cmax in CD-1 mouse at 50 mg/kg, po measured after 24 hrs by LC-MS/MS analysis; assay type: ADME, organism-based; conditions: in vivo
[8] = molecular target: T1, Ectonucleotide pyrophosphatase/phosphodiesterase family member 1; test: Inhibition of recombinant human ENPP-1 using AMP-pNP as substrate incubated for 20 mins by absorbance based plate reader analysis
[9] = molecular target: T1, Ectonucleotide pyrophosphatase/phosphodiesterase family member 1; test: Inhibition of human ENPP-1 using 2',3'-cGAMP as substrate preincubated for 15 mins followed by substrate addition and measured after 30 mins by AMP-Glo reagent based assay
[10] = Half-life in ICR mouse at 5 mg/kg, po measured after 24 hrs by LC/MS/MS analysis; assay type: ADME, organism-based; conditions: in vivo
[11] = Cmax in ICR mouse at 5 mg/kg, po measured after 24 hrs by LC/MS/MS analysis; assay type: ADME, organism-based; conditions: in vivo
[12] = AUC in ICR mouse at 5 mg/kg, po measured after 24 hrs by LC/MS/MS analysis; assay type: ADME, organism-based; conditions: in vivo
[13] = molecular target: T1, Ectonucleotide pyrophosphatase/phosphodiesterase family member 1; test: Inhibition of ENPP1 (unknown origin) using TMP-pNP as substrate preincubated for 10 mins followed by substrate addition and measured immediately under pH 8.8 by absorbance based multimode plate reader analysis
MDA-MB-231 = test: Antiproliferative activity against human MDA-MB-231 cells incubated for 48 hrs by CCK8 assay; conditions: MDA-MB-231, 48 h
[14] = molecular target: T3, Ectonucleotide pyrophosphatase/phosphodiesterase family member 1 (Homo sapiens) (UniProt P22413); test: Binding affinity to recombinant human ENPP1 assessed as thermal stabilization by measuring change in melting temperature incubated for 5 mins by SYPRO orange dye based thermal shift assay
T3 sequence (whole entry): T1 sequence (P22413 whole entry)

[15] = molecular target: T1, Ectonucleotide pyrophosphatase/phosphodiesterase family member 1; test: Inhibition of ENPP1 in HEK293 cells using 2',3'-cGAMP as substrate by AMP-Glo assay; assay type: cell-based
[16] = molecular target: T1, Ectonucleotide pyrophosphatase/phosphodiesterase family member 1; test: Inhibition of ENNP1 (unknown origin) using 2',3'-cGAMP as substrate preincubated with compound followed by substrate addition and measured after 60 mins by AMP-Glo reagent based assay

Ki [1]: 5000 nM
SMILES: CSc1nc(N)c2ncn([C@@H]3O[C@H](COP(=O)(O)OP(=O)(O)OP(=O)(O)O)[C@@H](O)[C@H]3O)c2n1

Ki [1]: 5000 nM
SMILES: Nc1ncnc2c1ncn2[C@@H]1O[C@H](COP(=O)(O)OP(=O)(O)OP(=O)(O)O)[C@@H](OC(=O)c2ccc(C(=O)c3ccccc3)cc2)[C@H]1O

IC50 [3]: < 200 nM
SMILES: COc1ccc(NC(=O)CSc2nc(C(=O)OCC(O)CO)c[nH]2)cc1OC (stereo unspecified)

Ki [1]: 5000 nM
SMILES: Nc1ncnc2c1ncn2[C@@H](C=O)O[C@@H](C=O)COP(=O)(O)OP(=O)(O)OP(=O)(O)O

Ki [4]: 4 nM
AUC(0-t) at 24 h [5]: 344 ng·h/mL
Ki [6]: < 2 nM
Cmax [7]: 67.2 ng/mL
SMILES: COc1cccc2c(N3CCC(CCP(=O)(O)O)CC3)ncnc12

Ki [13]: < 100 nM
SMILES: NC(=O)c1c[nH]c2c(NCc3ccc(P(=O)(O)O)cc3)ncnc12

Ki [6]: < 2 nM
SMILES: COc1cccc2c(N3CCC(CCP(=O)(O)O)CC3)c(C#N)cnc12

IC50 [15]: < 10 nM
AUC(0-t) at 24 h [5]: 4130 ng·h/mL
Ki [6]: < 10 nM
Cmax [7]: 1680 ng/mL
SMILES: COc1cccc2c(N3CCC(CC(CNC(=O)[C@@H](N)C(C)(C)C)P(=O)(O)O)CC3)ncnc12 (stereo partly specified)

Ki [1]: 5000 nM
SMILES: CSc1nc(N)c2ncn([C@@H]3O[C@H](COP(=O)(O)OP(=O)(O)O)[C@@H](O)[C@H]3O)c2n1

Ki [13]: < 100 nM
SMILES: NC(=O)c1c[nH]c2c(NCc3ccc(B(O)O)cc3)ncnc12

The remaining lines, values behind:

SMILES: COc1cc2c(-c3ccc(CNS(N)(=O)=O)c(F)c3)n[nH]c(=O)c2cc1OC
IC50 [2]: < 1000 nM

SMILES: Nc1ccc(F)c(-c2ccnc3c2CCC(=O)N3)c1
IC50 [2]: < 1000 nM

SMILES: COc1cc2ncc3ncn(Cc4ccc(CS(N)(=O)=O)cn4)c3c2cc1OC
IC50 [8]: < 100 nM
IC50 [9]: < 100 nM

SMILES: COc1ccc2c(Oc3ccc(CC(=O)NO)cc3)ccnc2n1
half-life [10]: 3.26 h
Cmax [11]: 736 ng/mL
AUC at 24 h [12]: 619 ng·h/mL

SMILES: NC(=O)c1ccc2c(ncn2Cc2ccc(B(O)O)cc2)n1
IC50 [13]: < 10 nM

SMILES: COc1ccc(NC(=O)CSc2nc(C(N)=O)c[nH]2)cc1OC
IC50 [3]: < 200 nM

SMILES: COc1ccc(NC(=O)CSc2nc(C(=O)O)c[nH]2)cc1Cl
IC50 [3]: < 200 nM

SMILES: COc1ccc2[nH]c(SCc3nc4cc(F)ccc4c(=O)[nH]3)nc2c1
IC50 (MDA-MB-231): < 1000 nM

SMILES: COc1ccc(NC(=O)CSc2nc3c(C)c(C#N)ncc3[nH]2)cc1O
ΔTm [14]: 1.11 °C

SMILES: COc1ncc2nc(C(F)(F)F)n(Cc3ncc(S(N)(=O)=O)cc3F)c2c1-c1ccccc1
IC50 [16]: < 1 nM

SMILES: Nc1ncnc2c1ncn2[C@@H]1O[C@H](COP(=O)(O)CP(=O)(O)O)[C@@H](O)[C@H]1O [PHOSPHOMETHYLPHOSPHONIC ACID ADENOSYL ESTER]
Ki [1]: 5000 nM

SMILES: COc1ccc2c(c1)nnn2-c1ccc(CNS(N)(=O)=O)c(F)c1
IC50 [2]: < 1000 nM
